In patent US20050014700A1, “Cbi analogues of cc-1065 and the duocarmycins” (priority 2001, published 2005):
Read-outs that look alike come from different tables or passages of the source.

Tests used:
[1] = test system: L1210; assay: cellular functional assay for L1210 cytotoxic activity; assay type: cell-based
Description: For comparison, the L1210 IC50 for (+)-N-Boc-CBI, which lacks an attached DNA binding domain, is 80 nM (80,000 pM).

[2] = test system: w794 duplex DNA (SV40 nucleosomal DNA insert in M13mp10); assay: DNA alkylation efficiency and selectivity, thermally-induced strand cleavage of 5′ end-labeled duplex DNA (PAGE); assay type: biochemical; details: for concentration at which DNA alkylation is detectable: 25° C., 24 hours
Description: The DNA alkylation properties of the compounds including those of CBI-X9-Y9 (24), CBI-X11-Y9 (25) and CBI-X10-Y10 (26) (FIG. 7) were examined within a 150 base-pair segment of duplex DNA and compared with (+)-duocarmycin SA (2), (+)-CBI-CDPI2 (27) and (+)-CBI-indole2 (28). One clone of phage M13mp10 was selected for the study that contained the SV40 nucleosomal DNA insert w794 (nucleotide no. 5238-138) (Ambrose, C., et al., J. Mol. Biol. 1989, 210, 255). The alkylation site identification and the assessment of the relative selectivity among the available sites was obtained by thermally-induced strand cleavage of the singly 5′ end-labeled duplex DNA after exposure to the agents. After treatment of the end-labeled duplex DNA with a range of agent concentrations, the unbound agent was removed by EtOH precipitation of the DNA. Redissolution of the DNA in aqueous buffer, thermolysis (100° C., 30 min) to induce strand cleavage at the sites of DNA alkylation, denaturing high resolution polyacrylamide gel electrophoresis (PAGE) adjacent to Sanger dideoxynucleotide sequencing standards, and autoradiography led to identification of the DNA cleavage and alkylation sites (Boger, D. L., et al., Tetrahedron 1991, 47, 2661).
The preparation of singly ^32P 5′ end-labeled double-stranded DNA, the agent binding studies, gel electrophoresis, and autoradiography were conducted according to procedures described in full detail elsewhere.^28 Eppendorf tubes containing the 5′ end-labeled DNA (9 μL) in TE buffer (10 mM Tris, 1 mM EDTA, pH 7.5) were treated with the agent in DMSO (1 μL at the specified concentration). The solution was mixed by vortexing and brief centrifugation and subsequently incubated at 25° C. for 24 hours. The covalently modified DNA was separated from the unbound agent by EtOH precipitation and resuspended in TE buffer (10 μL). The solution of DNA in an Eppendorf tube sealed with Parafilm was warmed at 100° C. for 30 min to introduce cleavage at the alkylation sites, allowed to cool to 25° C., and centrifuged. Formamide dye (0.03% xylene cyanol FF, 0.03% bromophenol blue, 8.7% Na2EDTA 250 mM) was added (5 μL) to the supernatant. Prior to electrophoresis, the sample was denatured by warming at 100° C. for 5 min, placed in an ice bath, and centrifuged, and the supernatant (3 μL) was loaded directly onto the gel. Sanger dideoxynucleotide sequencing reactions were run as standards adjacent to the reaction samples. Polyacrylamide gel electrophoresis (PAGE) was run on an 8% sequencing gel under denaturing conditions (8 M urea) in TBE buffer (100 mM Tris, 100 mM boric acid, 0.2 mM Na2EDTA) followed by autoradiography.

[3] = test system: w794 duplex DNA (SV40 nucleosomal DNA insert in M13mp10); details: cited from earlier work; for DNA alkylation efficiency compared to parent (+)-CBI-CDPI (21) / DNA alkylation selectivity compared to parent (+)-CBI-CDPI (21): previous study
[4] = test system: L1210; details: previous study; additional heteroatom in carboxylate bearing aromatic ring; cited from earlier work

1-(Chloromethyl)-5-hydroxy-3-{[3-[2-(tert-Butoxycarbonylamino-1,3-thiazol-4-yl) carbonyl]-1,2-dihydro(3H-pyrrolo[3,2-e]indol)-7-yl)carbonyl}-1,2-dihydrobenzo[e]indole [X11-Y7]
IC50 [1]: 5 pM

1-(Chloromethyl)-5-hydroxy-3-{[3-[4-(tert-Butoxycarbonylamino)-1-methylpyrrol-2-yl)-carbonyl]-1,2-dihydro(3H-pyrrolo[3,2-e]indol)-7-yl)carbonyl}-1,2-dihydrobenzo[e]indole [X11-Y10]
IC50 [1]: 5 pM

1-(Chloromethyl)-5-hydroxy-3-{[4-[4-(tert-Butoxycarbonylamino)-1-methylpyrrol-2-yl)carbonyl]amino-1-methylpyrrol-2-yl]carbonyl}-1,2-dihydrobenzo[e]indole [X10-Y10]
DNA alkylation effectiveness relative to N-Boc-CBI ([2]; comparable reaction conditions): 10-100 fold | lower DNA alkylation efficiency compared to 25 ([2]; w794 DNA): 100-1000 fold | concentration at which DNA alkylation is detectable ([2]; w794 DNA): 10^−3 M | IC50 [1]: 440 pM

1-(Chloromethyl)-5-hydroxy-3-{[4-[4-(tert-Butoxycarbonylaminothiophen-2-yl)carbonyl]aminothiophen-2-yl]carbonyl}-1,2-dihydrobenzo[e]indole [X8-Y8]
IC50 [1]: 290 pM

CC(C)(C)OC(=O)N1CC2CC23C1=CC(=O)c1ccccc13 (single isomer, unassigned; (+)) [(+)-N-Boc-CBI]
IC50 [1]: 80000 pM

CC(C)(C)OC(=O)N1CCc2c1ccc1[nH]c(C(=O)N3CCc4c3ccc3[nH]c(C(=O)N5CC(CCl)c6c5cc(O)c5ccccc65)cc43)cc21 (centres unmarked) [X11-Y11]
IC50 [1]: 5 pM

CC(C)(C)OC(=O)Nc1ccc2[nH]c(C(=O)N3CCc4c3ccc3[nH]c(C(=O)N5CC(CCl)c6c5cc(O)c5ccccc65)cc43)cc2c1 (centres unmarked) [X11-Y14, 1-(Chloromethyl)-5-hydroxy-3-{[3-[5-(tert-Butoxycarbonylaminoindole-2-yl)carbonyl]-1,2-dihydro(3H-pyrrolo[3,2-e]indol)-7-yl)carbonyl}-1,2-dihydrobenzo [e]indole]
IC50 [1]: 7 pM

Cn1cc(NC(=O)OC(C)(C)C)nc1C(=O)Nc1cn(C)c(C(=O)N2CC(CCl)c3c2cc(O)c2ccccc32)n1 (centres unmarked) [compound 24]
concentration at which DNA alkylation is detectable ([2]; w794 DNA): > 10^−3 M

NC(=O)N1CCc2c1ccc1[nH]c(C(=O)N3CCc4c3ccc3[nH]c(C(=O)N5C[C@H]6C[C@@]67C5=CC(=O)c5ccccc57)cc43)cc21 [compound 27, (+)-CBI-CDPI2]
alkylation of the minor 5′-ACTAA-3′ site ([2]; w794 DNA): neither 27 or 28 alkylate the minor 5′-ACTAA-3′ site to a significant extent

(+)-CBI-CDPBI
DNA alkylation efficiency compared to parent (+)-CBI-CDPI (21) [3]: analogous decrease in the DNA alkylation efficiency | DNA alkylation selectivity compared to parent (+)-CBI-CDPI (21) [3]: no alteration in the alkylation selectivity | decrease in cytotoxic activity relative to (+)-CBI-CDPI (21) [4]: 40 fold

(+)-CBI-CDPBO
DNA alkylation efficiency compared to parent (+)-CBI-CDPI (21) [3]: analogous decrease in the DNA alkylation efficiency | DNA alkylation selectivity compared to parent (+)-CBI-CDPI (21) [3]: no alteration in the alkylation selectivity | decrease in cytotoxic activity relative to (+)-CBI-CDPI (21) [4]: 40 fold

(+)-CBI-CDPI [compound 21]
alkylation of the minor 5′-ACTAA-3′ site ([3]; w794 DNA, prior study): does

(+)-CBI-indole2 [compound 28]
alkylation of the minor 5′-ACTAA-3′ site ([2]; w794 DNA): neither 27 or 28 alkylate the minor 5′-ACTAA-3′ site to a significant extent
